In ChEMBL document CHEMBL1201861, “Genomics of Drug Sensitity in Cancer screening data, Wellcome Trust Sanger Institute”:

How the values were obtained:
Assay in all cases: cells
Details in all cases: Homo sapiens
[1] = tested on: SNB-75; type: functional, cell-based;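 further: cell viability assay measuring growth inhibition of human SNB-75 cells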
Description: SANGER: Inhibition of human SNB75 cell growth in a cell viability assay.

[2] = tested on: GAK; type: functional, cell-based;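 further: cell growth inhibition read out by a cell viability assay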
Description: SANGER: Inhibition of human GAK cell growth in a cell viability assay.

[3] = tested on: NB13; type: functional, cell-based;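 further: cell viability readout measuring growth inhibition of human NB13 cells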
Description: SANGER: Inhibition of human NB13 cell growth in a cell viability assay.

[4] = tested on: TGBC1TKB; type: functional, cell-based;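 further: growth inhibition of TGBC1TKB cells, read out by a cell viability assay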
Description: SANGER: Inhibition of human TGBC1TKB cell growth in a cell viability assay.

[5] = tested on: OS-RC-2; type: functional, cell-based;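 further: growth inhibition of human OS-RC-2 cells, measured by a cell viability assay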
Description: SANGER: Inhibition of human OS-RC-2 cell growth in a cell viability assay.

[6] = tested on: DEL; type: functional, cell-based;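 further: growth inhibition of the human DEL cell line, read out with a cell viability assay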
Description: SANGER: Inhibition of human DEL cell growth in a cell viability assay.

[7] = tested on: NCI-H1304; type: functional, cell-based;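 further: growth inhibition of the cancer cell line, measured in a cell viability assay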
Description: SANGER: Inhibition of human NCI-H1304 cell growth in a cell viability assay.

[8] = tested on: L-428; type: functional, cell-based
Description: SANGER: Inhibition of human L-428 cell growth in a cell viability assay.

[9] = tested on: KU812 cell line; type: functional, cell-based;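 further: growth inhibition of KU812 cells, read out with a cell viability assay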
Description: SANGER: Inhibition of human KU812 cell growth in a cell viability assay.

[10] = tested on: NCI-H1770; type: functional, cell-based;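 further: growth inhibition of NCI-H1770 cells determined with a viability readout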
Description: SANGER: Inhibition of human NCI-H1770 cell growth in a cell viability assay.

[11] = tested on: NCI-H2126; type: functional, cell-based;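 further: growth inhibition of the cancer cell line, determined with a cell viability readout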
Description: SANGER: Inhibition of human NCI-H2126 cell growth in a cell viability assay.

[12] = tested on: HCC1187; type: functional, cell-based;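 further: growth inhibition of HCC1187 cells, read out with a cell viability assay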
Description: SANGER: Inhibition of human HCC1187 cell growth in a cell viability assay.

[13] = tested on: SK-UT-1; type: functional, cell-based;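 further: growth inhibition of SK-UT-1 cells, measured by a cell viability assay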
Description: SANGER: Inhibition of human SK-UT-1 cell growth in a cell viability assay.

[14] = tested on: SHP77; type: functional, cell-based, SHP-77;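 further: growth inhibition of human SHP-77 cells measured by a cell viability assay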
Description: SANGER: Inhibition of human SHP-77 cell growth in a cell viability assay.

[15] = tested on: MPP-89; type: functional, cell-based;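 further: growth inhibition of human MPP-89 cells, read out with a cell viability assay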
Description: SANGER: Inhibition of human MPP-89 cell growth in a cell viability assay.

[16] = tested on: EC-GI-10; type: functional, cell-based
Description: SANGER: Inhibition of human EC-GI-10 cell growth in a cell viability assay.

[17] = tested on: LB2518-MEL; type: functional, cell-based;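 further: growth inhibition of human LB2518-MEL cells, measured with a cell viability assay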
Description: SANGER: Inhibition of human LB2518-MEL cell growth in a cell viability assay.

[18] = tested on: HD-MY-Z; type: functional, cell-based;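 further: growth inhibition of HD-MY-Z cells, read out with a cell viability assay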
Description: SANGER: Inhibition of human HD-MY-Z cell growth in a cell viability assay.

[19] = tested on: MC116; type: functional, cell-based;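 further: growth inhibition of MC116 cells, read out with a cell viability assay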
Description: SANGER: Inhibition of human MC116 cell growth in a cell viability assay.

[20] = tested on: DMS-114; type: functional, cell-based
[21] = tested on: no-10; type: functional, cell-based;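 further: growth inhibition of no-10 cells, read out with a cell viability assay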
Description: SANGER: Inhibition of human no-10 cell growth in a cell viability assay.

[22] = tested on: LU-139; type: functional, cell-based
Description: SANGER: Inhibition of human LU-139 cell growth in a cell viability assay.

[23] = tested on: CTV-1; type: functional, cell-based;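 further: growth inhibition of the cell line, read out with a cell viability assay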
Description: SANGER: Inhibition of human CTV-1 cell growth in a cell viability assay.

[24] = tested on: ATN-1; type: functional, cell-based;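 further: growth inhibition of human ATN-1 cells, read out with a cell viability assay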
Description: SANGER: Inhibition of human ATN-1 cell growth in a cell viability assay.

[25] = tested on: A3-KAW; type: functional, cell-based;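 further: growth inhibition of human A3-KAW cells, read out with a cell viability assay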
Description: SANGER: Inhibition of human A3-KAW cell growth in a cell viability assay.

[26] = tested on: BV-173; type: functional, cell-based
Description: SANGER: Inhibition of human BV-173 cell growth in a cell viability assay.

[27] = tested on: Calu-6; type: functional, cell-based;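 further: growth of human Calu-6 cells, read out by a cell viability assay, IC50 marking inhibition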
Description: SANGER: Inhibition of human Calu-6 cell growth in a cell viability assay.

[28] = tested on: DSH1; type: functional, cell-based;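 further: growth inhibition of human DSH1 cells, measured with a cell viability readout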
Description: SANGER: Inhibition of human DSH1 cell growth in a cell viability assay.

[29] = tested on: SCH; type: functional, cell-based;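 further: growth inhibition of human SCH cells, read out in a cell viability assay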
Description: SANGER: Inhibition of human SCH cell growth in a cell viability assay.

[30] = tested on: MFM-223; type: functional, cell-based
Description: SANGER: Inhibition of human MFM-223 cell growth in a cell viability assay.

[31] = tested on: RCC10RGB; type: functional, cell-based;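 further: growth inhibition of human RCC10RGB cells, read out by a cell viability assay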
Description: SANGER: Inhibition of human RCC10RGB cell growth in a cell viability assay.

[32] = tested on: NCI-H82; type: functional, cell-based;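 further: growth inhibition of NCI-H82 cells, measured with a cell viability readout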
Description: SANGER: Inhibition of human NCI-H82 cell growth in a cell viability assay.

[33] = tested on: SW872; type: functional, cell-based;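 further: growth inhibition of SW872 cells, read out by a viability assay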
Description: SANGER: Inhibition of human SW872 cell growth in a cell viability assay.

[34] = tested on: OCI-AML2; type: functional, cell-based;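 further: growth inhibition of OCI-AML2 cells, read out with a cell viability assay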
Description: SANGER: Inhibition of human OCI-AML2 cell growth in a cell viability assay.

[35] = tested on: LC-2-ad; type: functional, cell-based;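 further: growth inhibition of human LC-2-ad cells, read out with a cell viability assay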
Description: SANGER: Inhibition of human LC-2-ad cell growth in a cell viability assay.

[36] = tested on: NH-12; type: functional, cell-based;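 further: growth inhibition of NH-12 cells, read out with a cell viability assay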
Description: SANGER: Inhibition of human NH-12 cell growth in a cell viability assay.

[37] = tested on: NCI-H23; type: functional, cell-based;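 further: cell viability assay measuring growth inhibition of NCI-H23 cells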
Description: SANGER: Inhibition of human NCI-H23 cell growth in a cell viability assay.

[38] = tested on: IST-SL1; type: functional, cell-based;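 further: growth inhibition of human IST-SL1 cells, read out with a cell viability assay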
Description: SANGER: Inhibition of human IST-SL1 cell growth in a cell viability assay.

[39] = tested on: LAMA-84; type: functional, cell-based;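 further: growth inhibition of LAMA-84 cells, read out with a cell viability assay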
Description: SANGER: Inhibition of human LAMA-84 cell growth in a cell viability assay.

[40] = tested on: RH-1; type: functional, cell-based;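 further: growth inhibition of human RH-1 cells, read out with a cell viability assay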
Description: SANGER: Inhibition of human RH-1 cell growth in a cell viability assay.

[41] = tested on: NCI-H226; type: functional, cell-based;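 further: cell viability read-out used to gauge growth inhibition of the cells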
Description: SANGER: Inhibition of human NCI-H226 cell growth in a cell viability assay.

[42] = tested on: HAL-01; type: functional, cell-based;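 further: growth inhibition of human HAL-01 cells, read out with a cell viability assay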
Description: SANGER: Inhibition of human HAL-01 cell growth in a cell viability assay.

[43] = tested on: CAS-1; type: functional, cell-based;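 further: growth inhibition of CAS-1 cells, measured with a cell viability assay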
Description: SANGER: Inhibition of human CAS-1 cell growth in a cell viability assay.

[44] = tested on: ETK-1; type: functional, cell-based;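 further: growth inhibition of human ETK-1 cells, read out with a cell viability assay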
Description: SANGER: Inhibition of human ETK-1 cell growth in a cell viability assay.

[45] = tested on: JVM-2; type: functional, cell-based;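 further: growth inhibition of JVM-2 cells determined by a cell viability assay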
Description: SANGER: Inhibition of human JVM-2 cell growth in a cell viability assay.

[46] = tested on: SK-N-FI; type: functional, cell-based;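 further: cell viability assay measuring growth inhibition of human SK-N-FI cells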
Description: SANGER: Inhibition of human SK-N-FI cell growth in a cell viability assay.

[47] = tested on: RS4-11; type: functional, cell-based;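 further: growth inhibition of RS4-11 cells, read out by a cell viability assay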
Description: SANGER: Inhibition of human RS4-11 cell growth in a cell viability assay.

[48] = tested on: MZ2-MEL; type: functional, cell-based;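 further: growth inhibition of MZ2-MEL cells read out with a cell viability assay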
Description: SANGER: Inhibition of human MZ2-MEL cell growth in a cell viability assay.

[49] = tested on: KALS-1; type: functional, cell-based;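 further: growth inhibition of KALS-1 cells, determined with a cell viability assay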
Description: SANGER: Inhibition of human KALS-1 cell growth in a cell viability assay.

[50] = tested on: NCI-H720; type: functional, cell-based;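 further: growth inhibition of human NCI-H720 cells determined by a cell viability assay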
Description: SANGER: Inhibition of human NCI-H720 cell growth in a cell viability assay.

[51] = tested on: OVCAR-4; type: functional, cell-based;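 further: growth inhibition of human OVCAR-4 cells, measured with a cell viability assay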
Description: SANGER: Inhibition of human OVCAR-4 cell growth in a cell viability assay.

[52] = tested on: DMS-79; type: functional, cell-based;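 further: growth inhibition measured with a cell viability assay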
Description: SANGER: Inhibition of human DMS-79 cell growth in a cell viability assay.

[53] = tested on: NCI-H1092; type: functional, cell-based;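 further: cell growth inhibition measured with a cell viability assay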
Description: SANGER: Inhibition of human NCI-H1092 cell growth in a cell viability assay.

[54] = tested on: COLO-824; type: functional, cell-based
Description: SANGER: Inhibition of human COLO-824 cell growth in a cell viability assay.

[55] = tested on: HT-144; type: functional, cell-based
Description: SANGER: Inhibition of human HT-144 cell growth in a cell viability assay.

[56] = tested on: BB65-RCC; type: functional, cell-based;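 further: growth inhibition of the cell line, measured with a cell viability assay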
Description: SANGER: Inhibition of human BB65-RCC cell growth in a cell viability assay.

[57] = tested on: SK-N-DZ; type: functional, cell-based
Description: SANGER: Inhibition of human SK-N-DZ cell growth in a cell viability assay.

[58] = tested on: EW-24; type: functional, cell-based
Description: SANGER: Inhibition of human EW-24 cell growth in a cell viability assay.

[59] = tested on: TE-12; type: functional, cell-based
Description: SANGER: Inhibition of human TE-12 cell growth in a cell viability assay.

[60] = tested on: EOL1; type: functional, cell-based
Description: SANGER: Inhibition of human EoL-1-cell cell growth in a cell viability assay.

[61] = tested on: NCI-H510A; type: functional, cell-based
Description: SANGER: Inhibition of human NCI-H510A cell growth in a cell viability assay.

[62] = tested on: OCUB-M; type: functional, cell-based
Description: SANGER: Inhibition of human OCUB-M cell growth in a cell viability assay.

[63] = tested on: COLO-829; type: functional, cell-based
Description: SANGER: Inhibition of human COLO-829 cell growth in a cell viability assay.

[64] = tested on: NCI-H1395; type: functional, cell-based
Description: SANGER: Inhibition of human NCI-H1395 cell growth in a cell viability assay.

[65] = tested on: SW684; type: functional, cell-based
Description: SANGER: Inhibition of human SW684 cell growth in a cell viability assay.

[66] = tested on: A498; type: functional, cell-based
Description: SANGER: Inhibition of human A498 cell growth in a cell viability assay.

Structure (SMILES): CCNc1cc(N[C@H]2CC[C@@H](O)CC2)nc(Nc2ccc3c(ccn3Cc3ccccc3)c2)n1
- IC50 [1]: > 5120 nM
- IC50 [2]: > 5120 nM
- IC50 [3]: > 5120 nM
- IC50 [4]: > 5120 nM
- IC50 [5]: > 5120 nM
- IC50 [6]: > 5120 nM
- IC50 [7]: > 5120 nM
- IC50 [8]: > 5120 nM
- IC50 [9]: > 5120 nM
- IC50 [10]: 5080 nM
- IC50 [11]: > 5120 nM
- IC50 [12]: > 5120 nM
- IC50 [13]: > 5120 nM
- IC50 [14]: > 5120 nM
- IC50 [15]: > 5120 nM
- IC50 [16]: > 5120 nM
- IC50 [17]: > 5120 nM
- IC50 [18]: > 5120 nM
- IC50 [19]: > 5120 nM
- IC50 [20]: > 5120 nM
- IC50 [21]: > 5120 nM
- IC50 [22]: > 5120 nM
- IC50 [23]: > 5120 nM
- IC50 [24]: > 5120 nM
- IC50 [25]: 1910 nM
- IC50 [26]: > 5120 nM
- IC50 [27]: > 5120 nM
- IC50 [28]: > 5120 nM
- IC50 [29]: > 5120 nM
- IC50 [30]: > 5120 nM
- IC50 [31]: > 5120 nM
- IC50 [32]: > 5120 nM
- IC50 [33]: > 5120 nM
- IC50 [34]: > 5120 nM
- IC50 [35]: 702 nM
- IC50 [36]: > 5120 nM
- IC50 [37]: > 5120 nM
- IC50 [38]: > 5120 nM
- IC50 [39]: > 5120 nM
- IC50 [40]: > 5120 nM
- IC50 [41]: > 5120 nM
- IC50 [42]: > 5120 nM
- IC50 [43]: > 5120 nM
- IC50 [44]: 242 nM
- IC50 [45]: > 5120 nM
- IC50 [46]: > 5120 nM
- IC50 [47]: 3740 nM
- IC50 [48]: > 5120 nM
- IC50 [49]: > 5120 nM
- IC50 [50]: > 5120 nM
- IC50 [51]: > 5120 nM
- IC50 [52]: > 5120 nM
- IC50 [53]: > 5120 nM
- IC50 [54]: > 5120 nM
- IC50 [55]: > 5120 nM
- IC50 [56]: > 5120 nM
- IC50 [57]: > 5120 nM
- IC50 [58]: > 5120 nM
- IC50 [59]: 5050 nM
- IC50 [60]: > 5120 nM
- IC50 [61]: > 5120 nM
- IC50 [62]: > 5120 nM
- IC50 [63]: > 5120 nM
- IC50 [64]: > 5120 nM
- IC50 [65]: > 5120 nM
- IC50 [66]: > 5120 nM

Structure (SMILES): Cn1cc(/C=C2\C(=O)Nc3cccnc32)c2ccccc21
- IC50 [1]: > 2000 nM
- IC50 [2]: > 2000 nM
- IC50 [3]: > 2000 nM
- IC50 [4]: > 2000 nM
- IC50 [5]: > 2000 nM
- IC50 [6]: > 2000 nM
- IC50 [7]: > 2000 nM
- IC50 [8]: > 2000 nM
- IC50 [9]: > 2000 nM
- IC50 [10]: > 2000 nM
- IC50 [11]: > 2000 nM
- IC50 [12]: > 2000 nM
- IC50 [13]: > 2000 nM
- IC50 [14]: > 2000 nM
- IC50 [15]: > 2000 nM
- IC50 [16]: > 2000 nM
- IC50 [17]: > 2000 nM
- IC50 [18]: > 2000 nM
- IC50 [19]: > 2000 nM
- IC50 [20]: > 2000 nM
- IC50 [21]: > 2000 nM
- IC50 [22]: > 2000 nM
- IC50 [23]: > 2000 nM
- IC50 [24]: > 2000 nM
- IC50 [25]: > 2000 nM
- IC50 [26]: > 2000 nM
- IC50 [27]: > 2000 nM
- IC50 [28]: > 2000 nM
- IC50 [29]: > 2000 nM
- IC50 [30]: > 2000 nM
- IC50 [31]: > 2000 nM
- IC50 [32]: > 2000 nM
- IC50 [33]: > 2000 nM
- IC50 [34]: > 2000 nM
- IC50 [35]: > 2000 nM
- IC50 [36]: > 2000 nM
- IC50 [37]: > 2000 nM
- IC50 [38]: > 2000 nM
- IC50 [39]: > 2000 nM
- IC50 [40]: > 2000 nM
- IC50 [41]: > 2000 nM
- IC50 [42]: > 2000 nM
- IC50 [43]: > 2000 nM
- IC50 [44]: > 2000 nM
- IC50 [45]: > 2000 nM
- IC50 [46]: > 2000 nM
- IC50 [47]: > 2000 nM
- IC50 [48]: > 2000 nM
- IC50 [49]: > 2000 nM
- IC50 [50]: > 2000 nM
- IC50 [51]: > 2000 nM
- IC50 [52]: > 2000 nM
- IC50 [53]: > 2000 nM
- IC50 [54]: > 2000 nM
- IC50 [55]: > 2000 nM
- IC50 [56]: > 2000 nM
- IC50 [57]: > 2000 nM
- IC50 [58]: > 2000 nM
- IC50 [59]: > 2000 nM
- IC50 [60]: > 2000 nM
- IC50 [61]: > 2000 nM
- IC50 [62]: > 2000 nM
- IC50 [63]: > 2000 nM
- IC50 [64]: > 2000 nM
- IC50 [65]: > 2000 nM
- IC50 [66]: > 2000 nM
